Measurements as given in ChEMBL document CHEMBL4699646, “Eleutheroside E Enhances the Long-Term Memory of Radiation-Damaged C. elegans through G-Protein-Coupled Receptor and Neuropeptide Signaling Pathways” (J Nat Prod, 2020).
Activity calls are given as the source filed them.

Experiments:
Caenorhabditis elegans [1] = assay: Memory enhancement effect in radioactive-induced Caenorhabditis elegans assessed as increase in cAMP level preincubated for 24 hrs followed by gamma-radiation treatment and measured after 24 hrs; type: functional, organism-based; conditions: time 48.0 hrs
Caenorhabditis elegans [2] = assay: Memory enhancement effect in radioactive-induced Caenorhabditis elegans RB1341 harboring […] mutant assessed as memory index preincubated for 24 hrs followed by gamma-radiation treatment and measured after 24 hrs; type: functional, organism-based; conditions: time 48.0 hrs
Caenorhabditis elegans [3] = assay: Memory enhancement effect in radioactive-induced Caenorhabditis elegans harboring RNAi egl8;egl-30(n686)ls(Podr-1-mcherry::egl-30) mutant assessed as memory index preincubated for 24 hrs followed by gamma-radiation treatment and measured after 24 hrs; type: functional, organism-based; conditions: time 48.0 hrs
Caenorhabditis elegans [4] = assay: Inhibition of Gs-apha-coupled PKA pathway in radioactive-induced Caenorhabditis elegans N2 assessed as down regulation of gsa-1 mRNA expression preincubated for 24 hrs followed by gamma-radiation treatment and measured after 24 hrs qRT-PCR analysis; conditions: time 48.0 hrs
Caenorhabditis elegans [5] = assay: Protective activity against Butanone-induced Caenorhabditis elegans N2 assessed as chemotaxis index incubated for 1 hr; type: functional, organism-based
Caenorhabditis elegans [6] = assay: Activation of CREB in radioactive-induced Caenorhabditis elegans YT17 harboring crh-1(tz2) mutant assessed as reduction radiation-induced damage preincubated for 24 hrs followed by gamma-radiation treatment and measured after 24 hrs; conditions: time 48.0 hrs
Caenorhabditis elegans [7] = assay: Protective activity against radioactive-induced Caenorhabditis elegans N2 at 0.05 to 0.2 mg/ml preincubated for 24 hrs followed by gamma-radiation treatment and measured after 24 hrs; type: functional, organism-based; conditions: dose mg/ml 0.05-0.2, time 48.0 hrs
Caenorhabditis elegans [8] = assay: Memory enhancement effect in radioactive-induced Caenorhabditis elegans harboring RNAi podr-1::unc-31 mutant assessed as memory index preincubated for 24 hrs followed by gamma-radiation treatment and measured after 24 hrs; type: functional, organism-based; conditions: time 48.0 hrs
Caenorhabditis elegans [9] = assay: Inhibition of cGMP signaling pathway in radioactive-induced Caenorhabditis elegans N2 assessed as down regulation of tax-4 mRNA expression preincubated for 24 hrs followed by gamma-radiation treatment and measured after 24 hrs qRT-PCR analysis; conditions: time 48.0 hrs
Caenorhabditis elegans [10] = assay: Activation of CREB in radioactive-induced Caenorhabditis elegans YT17 harboring crh-1(tz2) mutant assessed as increase in long-term memory preincubated for 24 hrs followed by gamma-radiation treatment and measured after 24 hrs; conditions: time 48.0 hrs
Caenorhabditis elegans [11] = assay: Inhibition of cGMP signaling pathway in radioactive-induced Caenorhabditis elegans N2 assessed as down regulation of odr-1 mRNA expression preincubated for 24 hrs followed by gamma-radiation treatment and measured after 24 hrs qRT-PCR analysis; conditions: time 48.0 hrs
Caenorhabditis elegans [12] = assay: Inhibition of Gs-apha-coupled PKA pathway in radioactive-induced Caenorhabditis elegans N2 assessed as down regulation of kin-2 mRNA expression preincubated for 24 hrs followed by gamma-radiation treatment and measured after 24 hrs qRT-PCR analysis; conditions: time 48.0 hrs
Caenorhabditis elegans [13] = assay: Memory enhancement effect in radioactive-induced Caenorhabditis elegans MT1434 harboring egl-30(n686) mutant assessed as memory index preincubated for 24 hrs followed by gamma-radiation treatment and measured after 24 hrs; type: functional, organism-based; conditions: time 48.0 hrs
Caenorhabditis elegans [14] = assay: Inhibition of neuropeptide pathway in radioactive-induced Caenorhabditis elegans N2 assessed as down regulation of nlp-1 mRNA expression preincubated for 24 hrs followed by gamma-radiation treatment and measured after 24 hrs qRT-PCR analysis; conditions: time 48.0 hrs
Caenorhabditis elegans [15] = assay: Inhibition of neuropeptide pathway in radioactive-induced Caenorhabditis elegans N2 assessed as down regulation of npr-2 mRNA expression preincubated for 24 hrs followed by gamma-radiation treatment and measured after 24 hrs qRT-PCR analysis; conditions: time 48.0 hrs
Caenorhabditis elegans [16] = assay: Inhibition of neuropeptide signaling pathway in radioactive-induced Caenorhabditis elegans N2 assessed as down regulation of npr-11 mRNA expression preincubated for 24 hrs followed by gamma-radiation treatment and measured after 24 hrs qRT-PCR analysis; conditions: time 48.0 hrs
Caenorhabditis elegans [17] = assay: Inhibition of cGMP signaling pathway in radioactive-induced Caenorhabditis elegans N2 assessed as down regulation of tax-2 mRNA expression preincubated for 24 hrs followed by gamma-radiation treatment and measured after 24 hrs qRT-PCR analysis; conditions: time 48.0 hrs
Caenorhabditis elegans [18] = assay: Protective activity against radioactive-induced Caenorhabditis elegans N2 assessed as body bends preincubated for 24 hrs followed by gamma-radiation treatment and measured after 24 hrs; type: functional, organism-based; conditions: time 48.0 hrs
Caenorhabditis elegans [19] = assay: Memory enhancement effect in radioactive-induced Caenorhabditis elegans MY66 harboring egl-30(n686);Podr-1-mcherry::egl-30(mtIs35)] mutant assessed as memory index preincubated for 24 hrs followed by gamma-radiation treatment and measured after 24 hrs; type: functional, organism-based; conditions: time 48.0 hrs
Caenorhabditis elegans [20] = assay: Memory enhancement effect in Caenorhabditis elegans N2 assessed as increase in long-term memory index at 0.1 mg/ml preincubated for 24 hrs followed by gamma-radiation treatment and measured after 24 hrs; type: functional, organism-based; conditions: time 48.0 hrs
Caenorhabditis elegans [21] = assay: Inhibition of Gq-alpha-coupled PLC pathway in radioactive-induced Caenorhabditis elegans N2 assessed as down regulation of egl-8 mRNA expression preincubated for 24 hrs followed by gamma-radiation treatment and measured after 24 hrs qRT-PCR analysis; conditions: time 48.0 hrs
Caenorhabditis elegans [22] = assay: Inhibition of Gq-alpha-coupled PLC pathway in radioactive-induced Caenorhabditis elegans N2 assessed as up regulation of goa-1 mRNA expression preincubated for 24 hrs followed by gamma-radiation treatment and measured after 24 hrs qRT-PCR analysis; conditions: time 48.0 hrs
Caenorhabditis elegans [23] = assay: Inhibition of cGMP signaling pathway in radioactive-induced Caenorhabditis elegans N2 assessed as down regulation of daf-11 mRNA expression preincubated for 24 hrs followed by gamma-radiation treatment and measured after 24 hrs qRT-PCR analysis; conditions: time 48.0 hrs
Caenorhabditis elegans [24] = assay: Inhibition of neuropeptide pathway in radioactive-induced Caenorhabditis elegans N2 assessed as down regulation of nlp-5 mRNA expression preincubated for 24 hrs followed by gamma-radiation treatment and measured after 24 hrs qRT-PCR analysis; conditions: time 48.0 hrs
Caenorhabditis elegans [25] = assay: Inhibition of Gq-alpha-coupled PLC pathway in radioactive-induced Caenorhabditis elegans N2 assessed as down regulation of egl-30 mRNA expression preincubated for 24 hrs followed by gamma-radiation treatment and measured after 24 hrs qRT-PCR analysis; conditions: time 48.0 hrs
Caenorhabditis elegans [26] = assay: Inhibition of neuropeptide pathway in radioactive-induced Caenorhabditis elegans N2 assessed as down regulation of nlp-23 mRNA expression preincubated for 24 hrs followed by gamma-radiation treatment and measured after 24 hrs qRT-PCR analysis; conditions: time 48.0 hrs
Caenorhabditis elegans [27] = assay: Protective activity against radioactive-induced Caenorhabditis elegans N2 assessed as head thrashes preincubated for 24 hrs followed by gamma-radiation treatment and measured after 24 hrs; type: functional, organism-based; conditions: time 48.0 hrs
Caenorhabditis elegans [28] = assay: Activation of CREB in radioactive-induced Caenorhabditis elegans MY36 harboring [crh-1(tz2); Pmbr-1-mcherry::crh-1(mtIs18)] mutant assessed as increase in long-term memory preincubated for 24 hrs followed by gamma-radiation treatment and measured after 24 hrs; conditions: filed as activator, time 48.0 hrs

COc1cc([C@H]2OC[C@@H]3[C@@H]2CO[C@H]3c2cc(OC)c(O[C@@H]3O[C@H](CO)[C@@H](O)[C@H](O)[C@H]3O)c(OC)c2)cc(OC)c1O[C@@H]1O[C@H](CO)[C@@H](O)[C@H](O)[C@H]1O
inactive: Activity (Caenorhabditis elegans [3]) | Activity (Caenorhabditis elegans [5]) | Activity (Caenorhabditis elegans [6]) | Activity (Caenorhabditis elegans [7]) | Activity (Caenorhabditis elegans [8]) | inhibition (Caenorhabditis elegans [9]) | Activity (Caenorhabditis elegans [10]) | inhibition (Caenorhabditis elegans [11]) | Activity (Caenorhabditis elegans [13]) | inhibition (Caenorhabditis elegans [17]) | Activity (Caenorhabditis elegans [18]) | inhibition (Caenorhabditis elegans [23]) | Activity (Caenorhabditis elegans [27])
active: Activity (Caenorhabditis elegans [1]) | Activity (Caenorhabditis elegans [2]) | inhibition (Caenorhabditis elegans [4]) | inhibition (Caenorhabditis elegans [12]) | inhibition (Caenorhabditis elegans [14]) | inhibition (Caenorhabditis elegans [15]) | inhibition (Caenorhabditis elegans [16]) | Activity (Caenorhabditis elegans [19]) | Activity (Caenorhabditis elegans [20]) | inhibition (Caenorhabditis elegans [21]) | inhibition (Caenorhabditis elegans [22]) | inhibition (Caenorhabditis elegans [24]) | inhibition (Caenorhabditis elegans [25]) | inhibition (Caenorhabditis elegans [26]) | Activity (Caenorhabditis elegans [28])
